Measured values: article PMC3368247 (Frontiers in Pharmacology, 2012)
Where two headings read alike, the source gives them in different places. Each block holds one compound with its values, some of them ahead of it.

Tests used:
[1] = molecular target: Cx50 GJ channels (Mus musculus, UniProt P28236); format: cell-based; settings: for effect on Cx50 junctional current: 10 μM; for IC50 Cx50 (μM): Table A1, alcohols, amines, nitriles and ureas; for Hill slope / Hill coefficient of Cx50 inhibition: fit to the Hill equation
Chain of Cx50 GJ channels (P28236 whole entry): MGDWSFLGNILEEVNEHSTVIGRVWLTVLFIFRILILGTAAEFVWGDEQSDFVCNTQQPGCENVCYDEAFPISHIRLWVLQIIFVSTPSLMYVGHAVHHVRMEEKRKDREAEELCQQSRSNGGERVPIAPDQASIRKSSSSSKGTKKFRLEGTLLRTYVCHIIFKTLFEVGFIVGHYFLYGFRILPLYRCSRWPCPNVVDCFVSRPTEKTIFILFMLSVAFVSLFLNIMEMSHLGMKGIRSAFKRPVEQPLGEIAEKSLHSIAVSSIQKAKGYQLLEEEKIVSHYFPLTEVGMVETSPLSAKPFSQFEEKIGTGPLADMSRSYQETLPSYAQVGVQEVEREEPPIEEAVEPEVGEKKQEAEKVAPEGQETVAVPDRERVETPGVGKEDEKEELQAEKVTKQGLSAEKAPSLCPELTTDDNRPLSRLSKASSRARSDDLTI

[2] = molecular target: Cx32 GJ channels (Rattus norvegicus, UniProt P08033); test: Cx32 junctional current, dual whole-cell voltage-clamp in N2A cells; format: cell-based; settings: 10 μM
Chain of Cx32 GJ channels (P08033 whole entry): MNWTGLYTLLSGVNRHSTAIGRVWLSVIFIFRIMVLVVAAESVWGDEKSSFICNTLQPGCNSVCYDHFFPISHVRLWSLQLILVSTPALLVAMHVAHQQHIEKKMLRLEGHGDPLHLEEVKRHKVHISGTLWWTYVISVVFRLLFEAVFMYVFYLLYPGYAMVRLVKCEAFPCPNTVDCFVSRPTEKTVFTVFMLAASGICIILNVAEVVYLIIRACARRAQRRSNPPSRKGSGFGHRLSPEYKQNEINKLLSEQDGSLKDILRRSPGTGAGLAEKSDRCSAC

[3] = molecular target: channels built out of Cx36 (Homo sapiens, UniProt Q9UKL4); test: Cx36 junctional current, dual whole-cell patch-clamp; format: cell-based; settings: 10 μM
[4] = molecular target: Cx46 GJ channels (Rattus norvegicus, UniProt P29414); test: Cx46 junctional current, dual whole-cell voltage-clamp in N2A cells; format: cell-based; settings: 10 μM
[5] = molecular target: hKCa3.1 (Homo sapiens, UniProt O15554); test: KCa3.1 current, whole-cell patch-clamp; format: cell-based
Chain of hKCa3.1 (O15554 whole entry): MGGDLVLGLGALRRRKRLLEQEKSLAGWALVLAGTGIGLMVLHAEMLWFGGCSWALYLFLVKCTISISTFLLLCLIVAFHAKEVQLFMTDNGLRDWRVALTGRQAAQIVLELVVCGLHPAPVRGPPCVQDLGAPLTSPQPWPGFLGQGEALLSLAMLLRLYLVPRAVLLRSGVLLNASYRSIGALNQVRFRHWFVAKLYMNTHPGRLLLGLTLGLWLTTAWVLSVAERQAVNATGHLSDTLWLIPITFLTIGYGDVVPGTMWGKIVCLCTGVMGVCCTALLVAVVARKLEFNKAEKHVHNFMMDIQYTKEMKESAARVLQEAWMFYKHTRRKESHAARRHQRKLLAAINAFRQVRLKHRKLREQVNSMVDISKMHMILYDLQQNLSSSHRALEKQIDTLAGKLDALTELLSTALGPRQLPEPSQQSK

[6] = molecular target: Cx26 GJ channels (Rattus norvegicus, UniProt P21994); test: Cx26 junctional current, dual whole-cell voltage-clamp in N2A cells; format: cell-based; settings: 10 μM
[7] = molecular target: Cx45 gap junction channels (Homo sapiens, UniProt P36383); test: Cx45 junctional current, dual whole-cell voltage-clamp; format: cell-based; settings: 10 μM
Chain of Cx45 gap junction channels (P36383 whole entry): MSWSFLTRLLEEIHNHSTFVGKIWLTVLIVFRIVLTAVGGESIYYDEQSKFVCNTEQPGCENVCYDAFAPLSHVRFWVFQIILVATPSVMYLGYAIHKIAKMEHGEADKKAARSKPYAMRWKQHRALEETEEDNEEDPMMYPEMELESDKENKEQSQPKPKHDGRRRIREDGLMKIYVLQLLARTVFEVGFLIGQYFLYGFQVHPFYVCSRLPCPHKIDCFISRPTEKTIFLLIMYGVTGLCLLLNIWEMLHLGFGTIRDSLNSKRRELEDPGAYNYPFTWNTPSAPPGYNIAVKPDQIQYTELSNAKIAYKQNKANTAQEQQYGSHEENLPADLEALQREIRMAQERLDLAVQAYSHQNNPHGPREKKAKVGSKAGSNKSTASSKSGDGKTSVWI

[8] = molecular target: Kv1.1 (Mus musculus, UniProt P16388); test: Kv1.1 current, whole-cell patch-clamp; format: cell-based; settings: read-out: Percentage of current inhibition, Kv1.1
[9] = molecular target: Kv1.3 (Mus musculus, UniProt P16390); test: Kv1.3 current, whole-cell patch-clamp; format: cell-based; settings: read-out: Percentage of current inhibition, Kv1.3
[10] = molecular target: Kv2.1 (Homo sapiens, UniProt Q14721); test: Kv2.1 current, whole-cell patch-clamp; format: cell-based; settings: read-out: Percentage of current inhibition, Kv2.1
Chain of Kv2.1 (Q14721 whole entry): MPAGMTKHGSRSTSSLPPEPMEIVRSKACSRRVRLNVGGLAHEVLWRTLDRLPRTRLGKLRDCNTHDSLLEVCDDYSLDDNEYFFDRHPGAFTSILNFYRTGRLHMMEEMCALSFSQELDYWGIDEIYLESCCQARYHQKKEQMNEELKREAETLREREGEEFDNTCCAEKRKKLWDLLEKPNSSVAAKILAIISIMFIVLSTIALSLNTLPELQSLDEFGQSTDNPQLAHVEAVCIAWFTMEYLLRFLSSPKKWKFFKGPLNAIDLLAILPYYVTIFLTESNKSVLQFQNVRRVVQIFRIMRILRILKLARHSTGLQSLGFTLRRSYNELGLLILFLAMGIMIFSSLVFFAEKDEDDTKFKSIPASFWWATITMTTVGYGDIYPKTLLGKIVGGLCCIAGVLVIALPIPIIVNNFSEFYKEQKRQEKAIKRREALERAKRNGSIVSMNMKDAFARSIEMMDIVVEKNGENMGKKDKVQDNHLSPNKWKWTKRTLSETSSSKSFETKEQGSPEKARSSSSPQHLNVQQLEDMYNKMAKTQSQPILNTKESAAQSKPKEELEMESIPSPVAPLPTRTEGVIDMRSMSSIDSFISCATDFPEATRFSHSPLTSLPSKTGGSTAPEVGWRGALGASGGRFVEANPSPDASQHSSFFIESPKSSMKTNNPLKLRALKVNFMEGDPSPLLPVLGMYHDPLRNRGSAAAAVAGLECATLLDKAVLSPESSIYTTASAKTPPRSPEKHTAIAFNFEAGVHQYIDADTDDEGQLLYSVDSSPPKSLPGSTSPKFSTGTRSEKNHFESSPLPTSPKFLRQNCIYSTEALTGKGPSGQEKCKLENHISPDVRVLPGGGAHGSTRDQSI

[11] = molecular target: Kv3.1 (Mus musculus, UniProt P15388); test: Kv3.1 current, whole-cell patch-clamp; format: cell-based; settings: read-out: Percentage of current inhibition, Kv3.1
Chain of Kv3.1 (P15388 whole entry): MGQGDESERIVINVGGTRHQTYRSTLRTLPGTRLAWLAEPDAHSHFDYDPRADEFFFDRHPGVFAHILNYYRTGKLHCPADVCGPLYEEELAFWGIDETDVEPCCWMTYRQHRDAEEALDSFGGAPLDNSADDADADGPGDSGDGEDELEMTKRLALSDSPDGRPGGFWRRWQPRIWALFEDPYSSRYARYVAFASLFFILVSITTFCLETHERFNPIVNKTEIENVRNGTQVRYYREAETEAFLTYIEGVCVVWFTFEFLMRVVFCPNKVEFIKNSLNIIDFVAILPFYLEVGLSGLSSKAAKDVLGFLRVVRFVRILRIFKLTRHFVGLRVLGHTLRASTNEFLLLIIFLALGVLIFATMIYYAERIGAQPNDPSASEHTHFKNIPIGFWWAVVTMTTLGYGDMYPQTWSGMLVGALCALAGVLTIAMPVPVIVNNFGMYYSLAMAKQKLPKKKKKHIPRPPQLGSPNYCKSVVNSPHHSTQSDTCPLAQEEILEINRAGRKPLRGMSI

[12] = molecular target: Kv4.2 (Rattus norvegicus, UniProt Q63881); test: Kv4.2 current, whole-cell patch-clamp; format: cell-based; settings: read-out: Percentage of current inhibition, Kv4.2
[13] = molecular target: Kv7.2/7.3 (Homo sapiens, UniProt O43525+O43526); test: Kv7.2/7.3 current, whole-cell patch-clamp; format: cell-based; settings: 10 μM
[14] = molecular target: Kv11.1 (hERG) (Homo sapiens, UniProt Q12809); test: Kv11.1; format: cell-based; settings: HEK-293 cells stably expressing Kv11.1 (hERG)
[15] = tested on: KCa2.3; test: KCa2.3 current, whole-cell patch-clamp; format: cell-based, human; settings: 10 μM
[16] = molecular target: KCa1.1 (BK) (Homo sapiens, UniProt Q12791); test: KCa1.1; format: cell-based; settings: read-out: Percentage of current inhibition, KCa1.1 (BK)
[17] = molecular target: Nav1.2 (Mus musculus, UniProt B1AWN6); test: Nav1.2 current in N1E-115 cells, whole-cell patch-clamp; format: cell-based; settings: N1E-115, read-out: Percentage of current inhibition, Nav1.2
Chain of Nav1.2 (B1AWN6 whole entry): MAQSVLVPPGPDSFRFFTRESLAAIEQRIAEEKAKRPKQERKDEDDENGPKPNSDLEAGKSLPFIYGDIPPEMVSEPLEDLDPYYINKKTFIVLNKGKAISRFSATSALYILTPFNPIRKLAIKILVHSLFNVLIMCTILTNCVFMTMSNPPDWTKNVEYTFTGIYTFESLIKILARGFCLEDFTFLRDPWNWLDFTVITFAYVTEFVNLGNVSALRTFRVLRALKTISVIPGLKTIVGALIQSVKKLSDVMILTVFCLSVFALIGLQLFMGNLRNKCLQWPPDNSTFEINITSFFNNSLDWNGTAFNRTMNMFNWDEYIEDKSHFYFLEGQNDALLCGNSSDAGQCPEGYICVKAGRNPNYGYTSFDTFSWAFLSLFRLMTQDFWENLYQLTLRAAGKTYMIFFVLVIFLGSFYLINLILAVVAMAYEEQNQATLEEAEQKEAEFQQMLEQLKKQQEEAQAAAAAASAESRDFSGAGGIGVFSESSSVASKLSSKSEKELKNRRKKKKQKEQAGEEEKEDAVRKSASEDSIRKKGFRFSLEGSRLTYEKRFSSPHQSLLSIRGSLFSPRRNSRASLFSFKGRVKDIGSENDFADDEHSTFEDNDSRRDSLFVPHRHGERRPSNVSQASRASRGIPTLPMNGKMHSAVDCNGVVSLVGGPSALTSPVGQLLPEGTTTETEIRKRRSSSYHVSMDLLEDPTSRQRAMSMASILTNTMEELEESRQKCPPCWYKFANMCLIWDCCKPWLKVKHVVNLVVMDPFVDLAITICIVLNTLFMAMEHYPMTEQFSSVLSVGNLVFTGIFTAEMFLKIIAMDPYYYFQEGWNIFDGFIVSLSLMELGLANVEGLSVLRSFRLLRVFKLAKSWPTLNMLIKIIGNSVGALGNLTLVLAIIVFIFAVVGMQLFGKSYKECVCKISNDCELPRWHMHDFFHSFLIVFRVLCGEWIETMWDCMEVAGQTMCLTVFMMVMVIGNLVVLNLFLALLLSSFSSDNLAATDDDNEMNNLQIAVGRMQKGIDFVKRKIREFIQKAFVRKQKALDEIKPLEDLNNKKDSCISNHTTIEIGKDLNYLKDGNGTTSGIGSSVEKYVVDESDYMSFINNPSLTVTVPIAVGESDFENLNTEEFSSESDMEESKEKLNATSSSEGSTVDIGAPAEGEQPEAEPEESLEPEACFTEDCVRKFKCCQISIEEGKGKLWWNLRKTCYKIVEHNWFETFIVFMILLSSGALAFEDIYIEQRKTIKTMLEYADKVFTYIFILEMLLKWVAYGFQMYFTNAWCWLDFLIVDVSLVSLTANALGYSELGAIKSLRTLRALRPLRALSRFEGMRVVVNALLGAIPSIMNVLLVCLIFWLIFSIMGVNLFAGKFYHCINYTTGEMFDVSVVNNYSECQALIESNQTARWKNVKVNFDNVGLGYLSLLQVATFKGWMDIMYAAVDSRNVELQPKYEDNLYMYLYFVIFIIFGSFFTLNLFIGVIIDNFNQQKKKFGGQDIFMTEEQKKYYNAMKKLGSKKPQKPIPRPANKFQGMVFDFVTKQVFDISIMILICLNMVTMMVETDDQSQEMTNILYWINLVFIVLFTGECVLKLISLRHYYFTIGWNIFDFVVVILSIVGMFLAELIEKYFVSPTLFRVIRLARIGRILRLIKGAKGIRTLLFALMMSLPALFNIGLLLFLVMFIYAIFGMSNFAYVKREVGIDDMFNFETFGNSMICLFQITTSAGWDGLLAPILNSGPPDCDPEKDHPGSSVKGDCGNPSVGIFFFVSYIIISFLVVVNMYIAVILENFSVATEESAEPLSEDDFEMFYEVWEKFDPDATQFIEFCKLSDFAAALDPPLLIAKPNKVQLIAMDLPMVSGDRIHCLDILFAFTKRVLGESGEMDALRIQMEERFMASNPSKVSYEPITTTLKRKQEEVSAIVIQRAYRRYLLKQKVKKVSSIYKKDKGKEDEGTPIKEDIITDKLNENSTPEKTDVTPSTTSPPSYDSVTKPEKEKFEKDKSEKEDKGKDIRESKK

[18] = molecular target: Nav1.4 (Homo sapiens, UniProt P35499); test: Nav1.4 current, whole-cell patch-clamp; format: cell-based; settings: 10 μM
[19] = tested on: sodium channels; test: Summary of block of the tested sodium channels; format: cell-based; settings: 10 μM; summary in discussion
[20] = tested on: potassium channels; test: Summary of block of the tested potassium channels; format: cell-based; settings: 10 μM; summary in discussion
[21] = tested on: primary lens epithelial cells; test: Junctional currents between primary lens epithelial cells; format: cell-based, mouse; settings: 10 μM; for reduction of junctional currents in lens epithelial cells, % of the initial conductance: mouse lenses postnatal day 6, means ± SEM
[22] = tested on: Cx26 hemichannel; settings: read-out: IC50, Cx26 hemichannel currents; Xenopus oocytes; literature value; cited from earlier work
[23] = tested on: Cx38 hemichannel; settings: read-out: IC50, Cx38 hemichannel currents; Xenopus oocytes; literature value; cited from earlier work
[24] = molecular target: 11β-hydroxysteroid dehydrogenase; settings: read-out: IC50, 11β-hydroxysteroid dehydrogenase; ref Monder et al., 1989; cited from earlier work
[25] = tested on: voltage-gated Ca^2+ currents; settings: read-out: IC50, voltage-gated Ca2+ currents; ref Vessey et al., 2004; cited from earlier work
[26] = tested on: pannexin channels; settings: read-out: IC50, pannexin channels; ref Locovei et al., 2007; cited from earlier work
[27] = molecular target: P2x7 receptors; settings: read-out: IC50, P2x7 receptors; ref Suadicani et al., 2006; cited from earlier work
[28] = IC50 KCa3.1, Table 1, mean ± SD

Compound: COc1ccc(CCN2CCC(Nc3nc4ccccc4n3Cc3ccc(F)cc3)CC2)cc1 [Astemizole, reference compound]
reversibility of inhibition of Cx50 junctional currents upon washout [1]: completely reversible | effect on Cx50 junctional current [1]: significant inhibition

Compound: Clc1ccccc1C(c1ccccc1)(c1ccccc1)n1ccnc1 [Clotrimazole]
inhibition of Cx32 GJ channel current / reduction of junction conductance [2]: no effect | effect on channels built out of Cx36 [3]: no effect | inhibition of Cx46 GJ channel current / reduction of junction conductance [4]: no effect

Compound: OC(c1ccccc1)(c1ccccc1)c1ccncc1 [T50, diphenyl-4-pyridylmethanol]
IC50 [1]: 10 µM | IC50 [5]: > 50 µM

Compound: Nc1ccccc1C(O)(c1ccccc1)c1ccccc1 [T154-OH, (2-Aminophenyl)diphenylmethanol]
IC50 Cx50 (μM) [1]: No effect

Compound: c1ccc(C(c2ccccc2)c2ccncc2)cc1 [T160, diphenyl-4-pyridylmethane]
IC50 [1]: 4 µM | IC50 [5]: 8.6 µM

Compound: c1ccc(C(c2ccccc2)c2ccccc2)cc1 [Triphenylmethane, triphenylmethane]
IC50 [1]: 0.9 µM | IC50 ([5]; IC50 KCa3.1 (μM), Table A1): 3.7 µM

Compound: OC(c1ccccc1)(c1ccccc1)c1ccccc1 [Triphenylmethanol, triphenylmethanol]
IC50 [1]: 1 µM | IC50 ([5]; IC50 KCa3.1 (μM), Table A1): 0.5 µM

Compound: CC1(C)[C@@H](OC(=O)CCC(=O)O)CC[C@]2(C)[C@H]3C(=O)C=C4[C@@H]5C[C@@](C)(C(=O)O)CC[C@]5(C)CC[C@@]4(C)[C@]3(C)CC[C@@H]12 [carbenoxolone]
IC50 [22]: 21 µM | IC50 [23]: 34 µM | IC50 [24]: ~5 µM | IC50 [25]: 48 µM | IC50 [26]: 2 to 5 µM | IC50 [27]: 0.175 µM

Compound: O=c1c(O)c(-c2ccc(O)c(O)c2)oc2cc(O)cc(O)c12 [quercetin, reference compound]
effect on Cx50 junctional current [1]: no effect

Compound: C[C@@H]1O[C@@H](OC[C@H]2O[C@@H](Oc3c(-c4ccc(O)c(O)c4)oc4cc(O)cc(O)c4c3=O)[C@H](O)[C@@H](O)[C@@H]2O)[C@H](O)[C@H](O)[C@H]1O [rutin, reference compound]
reversibility of inhibition of Cx50 junctional currents upon washout [1]: only partially reversible | effect on Cx50 junctional current [1]: significant inhibition

Now from value to compound, other results behind:

IC50 [1]: 2.8 µM | IC50 ([5]; IC50 KCa3.1 (μM), Table A1): 0.53 µM
Compound: OC(c1ccccc1)(c1ccccc1)c1ccc(Cl)cc1 [T1, (4-Chlorophenyl)diphenylmethanol]

IC50 [1]: 3.6 µM | IC50 ([5]; IC50 KCa3.1 (μM), Table A1): 0.55 µM
Compound: OC(c1ccccc1)(c1ccccc1)c1cccc(Cl)c1 [T2, (3-Chlorophenyl)diphenylmethanol]

IC50 Cx50 (μM) [1]: No effect | IC50 ([5]; IC50 KCa3.1 (μM), Table A1): 25 µM
Compound: O=C(O)CC(c1ccccc1)(c1ccccc1)c1ccccc1 [T51, 3,3,3-triphenylpropionic acid]

effect on Cx50 junctional current [1]: no effect
Compound: FC(F)(F)Oc1cccc(NC(c2ccccc2)(c2ccccc2)c2ccccc2Cl)c1 [T102, N-[(2-Chlorophenyl)diphenylmethyl]-3-(trifluoromethoxy)aniline]

effect on Cx50 junctional current [1]: no effect
Compound: FC(F)(F)Oc1ccccc1NC(c1ccccc1)(c1ccccc1)c1ccccc1Cl [T104, N-[(2-Chlorophenyl)diphenylmethyl]-2-(trifluoromethoxy)aniline]

IC50 [1]: 10 µM
Compound: COc1ccc(NC(c2ccccc2)(c2ccccc2)c2ccccc2Cl)cc1 [T106, N-[(2-Chlorophenyl)diphenylmethyl]-4-methoxyaniline]

effect on Cx50 junctional current [1]: no effect
Compound: Clc1ccccc1C(Oc1ccccc1)(c1ccccc1)c1ccccc1 [T107, 1-Chloro-2-(phenoxydiphenylmethyl)benzene]

effect on Cx50 junctional current [1]: no effect
Compound: Clc1ccccc1C(Nc1ccccc1)(c1ccccc1)c1ccccc1 [T109, N-[(2-Chlorophenyl)diphenylmethyl]aniline]

IC50 Cx50 (μM) [1]: No effect
Compound: COc1ccccc1C(O)(c1ccccc1)c1ccccc1 [T117, (2-Methoxyphenyl)diphenylmethanol]

IC50 [1]: 1.2 µM | selectivity over other connexins as well as major neuronal and cardiac voltage-gated K+ and Na+ channels [1]: at least 10 fold | Hill slope / Hill coefficient of Cx50 inhibition [1]: 1.6 | IC50 [5, 28]: 10.2 µM | IC50 ([5]; IC50 KCa3.1, running text): 10 µM | inhibition of Cx26 GJ channel current / reduction of junction conductance [6]: no significant effect | inhibition of Cx32 GJ channel current / reduction of junction conductance [2]: no significant effect | effect on Cx45 gap junction channels [7]: no significant effect | inhibition at 10 µM [8]: 65 ± 10% | inhibition at 10 µM [9]: 52 ± 2% | inhibition at 10 µM [10]: 28 ± 4% | inhibition at 10 µM [11]: 32 ± 12% | inhibition at 10 µM [12]: 16 ± 4% | Percentage of current inhibition, Kv7.2/7.3 [13]: No effect (n = 3) | inhibition at 10 µM [16]: 43 ± 4% | inhibition at 10 µM [17]: 11 ± 1% | Percentage of current inhibition, Nav1.4 [18]: No effect (n = 3)
Compound: COc1ccccc1C(Nc1nccs1)(c1ccccc1)c1ccccc1 [T122, N-[(2-Methoxyphenyl)diphenylmethyl]-1,3-thiazol-2-amine]
inhibition at 10 µM [14]: 42 ± 3% | Percentage of current inhibition, KCa2.3 [15]: No effect (n = 3) | inhibition of sodium channels [19]: < 11% | inhibition of most of the tested potassium channels [20]: 18–43% | reversibility of reduction of junctional currents on washout [21]: reversible | reduction of junctional currents in lens epithelial cells, % of the initial conductance [21]: 67 ± 9%

IC50 [1]: 2.4 µM | selectivity over other connexins as well as major neuronal and cardiac voltage-gated K+ and Na+ channels [1]: at least 10 fold | Hill slope / Hill coefficient of Cx50 inhibition [1]: 1.7 | IC50 [5, 28]: 1.3 µM | inhibition of Cx26 GJ channel current / reduction of junction conductance [6]: no significant effect | inhibition of Cx32 GJ channel current / reduction of junction conductance [2]: no significant effect | effect on Cx45 gap junction channels [7]: no significant effect | inhibition at 10 µM [8]: 28 ± 9% | inhibition at 10 µM [9]: 18 ± 4% | inhibition at 10 µM [10]: 28 ± 4% | inhibition at 10 µM [11]: 37 ± 16% | inhibition at 10 µM [12]: 15 ± 3% | Percentage of current inhibition, Kv7.2/7.3 [13]: No effect (n = 2) | inhibition at 10 µM [16]: 26 ± 2% | inhibition at 10 µM [17]: 9 ± 0.5% | Percentage of current inhibition, Nav1.4 [18]: No effect (n = 3)
Compound: Ic1ccccc1C(Nc1nccs1)(c1ccccc1)c1ccccc1 [T136, N-[(2-Iodophenyl)diphenylmethyl]-1,3-thiazol-2-amine]
inhibition at 10 µM [14]: 27 ± 4% | Percentage of current inhibition, KCa2.3 [15]: No effect (n = 3) | inhibition of sodium channels [19]: < 11% | inhibition of most of the tested potassium channels [20]: 18–43% | reversibility of reduction of junctional currents on washout [21]: reversible | reduction of junctional currents in lens epithelial cells, % of the initial conductance [21]: 64 ± 8%

effect on Cx50 junctional current [1]: no effect
Compound: FC(F)(F)Oc1ccc(NC(c2ccccc2)(c2ccccc2)c2ccccc2Cl)cc1 [T150, N-[(2-Chlorophenyl)diphenylmethyl]-4-(trifluoromethoxy)aniline]

IC50 Cx50 (μM) [1]: No effect
Compound: COc1ccccc1C(O)(c1ccccc1)c1ccccc1OC [T165, Bis-(2-methoxyphenyl)(phenyl)methanol]
